Experimental data reported in the Deep4Chem optical property database.
One block for each compound: values may come before it.

Assay: solvent given as SMILES

SMILES: CCN(CC)c1ccc2c(-c3ccccc3C(=O)O)c3c([o+]c2c1)/C(=C/c1nc(C)n2ccccc12)CCC3
emission maximum (in ClCCl): 735 nm

SMILES: O=C1/C(=C\c2ccc3oc4ccccc4c3c2)S(=O)(=O)c2ccccc21
emission maximum (in C1CCOC1): 437 nm
emission maximum (in C1COCCO1): 436 nm
emission maximum (in CC#N): 480 nm
emission maximum (in CC(C)=O): 458 nm
emission maximum (in CCOC(C)=O): 429 nm
emission maximum (in CN(C)C=O): 445 nm
emission maximum (in CO): 439 nm
emission maximum (in CS(C)=O): 449 nm
emission maximum (in Cc1ccccc1): 430 nm
emission maximum (in ClC(Cl)Cl): 441 nm
emission maximum (in ClCCl): 438 nm

SMILES: CC1(C)c2ccccc2N(c2cccc(S(=O)(=O)c3cccc(N4c5ccccc5C(C)(C)c5ccccc54)c3)c2)c2ccccc21
emission maximum (in C1CCOC1): 422 nm
emission maximum (in CCCCC(CC)n1c2ccc(-n3c4ccccc4c4ccccc43)cc2c2cc(-n3c4ccccc4c4ccccc43)ccc21): 509.28 nm
emission maximum (in Cc1ccccc1): 489 nm
emission maximum (in ClC(Cl)Cl): 515 nm
emission maximum (in c1cc(-n2c3ccccc3c3ccccc32)cc(-n2c3ccccc3c3ccccc32)c1): 505.12 nm

SMILES: Cc1cc(C)c(C2=C3C=c4c(c5ccc(C(C)(C)C)cc5c5cc(C(C)(C)C)ccc45)=[N+]3[B-](F)(F)n3c2cc2c4ccc(C(C)(C)C)cc4c4cc(C(C)(C)C)ccc4c23)c(C)c1
emission maximum (in C1CCCCC1): 707 nm
emission maximum (in C1CCOC1): 711 nm
emission maximum (in CC#N): 711 nm
emission maximum (in Cc1ccccc1): 715 nm
emission maximum (in ClCCl): 715 nm

SMILES: C[n+]1ccc(/C=C/c2ccc([O-])cc2)cc1
emission maximum (in CC#N): 606 nm
emission maximum (in CC(C)=O): 610 nm
emission maximum (in CC(C)O): 594 nm
emission maximum (in CCCO): 587 nm
emission maximum (in CCO): 582 nm
emission maximum (in CN(C)C=O): 608 nm
emission maximum (in CO): 576 nm
emission maximum (in CS(C)=O): 608 nm
emission maximum (in ClCCl): 615 nm
emission maximum (in NC=O): 577 nm
emission maximum (in O): 560 nm
emission maximum (in OCCO): 573 nm

SMILES: Cc1cc(C)c(C)c(B(c2c(C)c(C)c(N3c4ccccc4Oc4ccccc43)c(C)c2C)c2c(C)c(C)c(N3c4ccccc4Oc4ccccc43)c(C)c2C)c1C
emission maximum (in CC(C)(C)c1ccc(-n2c3ccc([Si](c4ccccc4)(c4ccccc4)c4ccccc4)cc3c3cc([Si](c4ccccc4)(c4ccccc4)c4ccccc4)ccc32)cc1): 484 nm

SMILES: c1ccc(-c2ccc(-c3cn4ccc[n+]4[n-]3)cc2)cc1
emission maximum (in ClCCl): 456 nm

SMILES: CCCCCCc1ccc2c(/C=N/c3ccc(/N=C/c4c(O)ccc5cc(CCCCCC)ccc45)cc3)c(O)ccc2c1
emission maximum (in C1CCOC1): 542 nm
emission maximum (in CC#N): 539 nm
emission maximum (in Cc1ccccc1): 546 nm
emission maximum (in ClCCl): 546 nm

SMILES: O=S(=O)(c1ccccc1)c1ccc(-n2c3ccccc3c3c2c2ccccc2n3-c2ccccc2)cc1
emission maximum (in Cc1ccccc1): 476 nm

SMILES: N#Cc1cc(N2c3ccccc3Oc3ccccc32)cc(N2c3ccccc3Oc3ccccc32)c1
emission maximum (in Cc1ccccc1): 520 nm

SMILES: CC(=O)Nc1ccc(S(=O)(=O)O)c(/N=N/c2c(O)c3ccccc3n(C)c2=O)c1
emission maximum (in C1CCOC1): 523 nm
emission maximum (in CC(C)=O): 516 nm
emission maximum (in CCOC(C)=O): 523 nm
emission maximum (in CO): 512 nm
emission maximum (in CS(C)=O): 526 nm
emission maximum (in Cc1ccccc1): 517 nm
emission maximum (in ClCCl): 528 nm
emission maximum (in O): 549 nm

SMILES: Cc1ccc(C(=O)/C=C/c2ccc(N(C)C)cc2)cc1
emission maximum (in C1CCOC1): 503 nm
emission maximum (in CC#N): 529 nm
emission maximum (in CC(=O)O): 512 nm
emission maximum (in CC(C)=O): 516 nm
emission maximum (in CCO): 533 nm
emission maximum (in CN(C)C=O): 528 nm
emission maximum (in CO): 533 nm
emission maximum (in Cc1ccccc1): 477 nm
emission maximum (in ClC(Cl)Cl): 508 nm
emission maximum (in c1ccccc1): 473 nm

SMILES: Cc1ccc(C)n1-c1ccc(C#N)cc1
emission maximum (in C1CCOC1): 501 nm
emission maximum (in CCCCCC): 406 nm
emission maximum (in CCCCCl): 480 nm
emission maximum (in CCOCC): 479 nm
emission maximum (in ClCCl): 517 nm

SMILES: CCCCCCC(CCCCCC)N1C(=O)c2cccc3c(-c4ccc(-c5ccc(OC)cc5)cc4)ccc(c23)C1=O
emission maximum (in CCCCCC): 426.8 nm
emission maximum (in CCCCCCCCCCCCCC): 436.7 nm
emission maximum (in CCCCCCCCCCCO): 518.2 nm
emission maximum (in CCCCO): 556.6 nm
emission maximum (in CN(C)C=O): 583.4 nm
emission maximum (in Cc1ccccc1): 454.6 nm
emission maximum (in ClC(Cl)Cl): 492.2 nm

SMILES: CC1(C)C(/C=C/C2=C(Oc3ccc(CCN=C=S)cc3Cl)C(=C/C=C3/N(CCCS(=O)(=O)[O-])c4ccccc4C3(C)C)/CCC2)=[N+](CCCS(=O)(=O)[O-])c2ccccc21
emission maximum (in CO): 797 nm

SMILES: O=C(O)c1ccc(-c2cnc(-c3ccc(N(c4ccccc4)c4ccccc4)cc3)s2)cc1
emission maximum (in CO): 496 nm

SMILES: O=c1c2cc(F)c(N3CCOCC3)cc2sc2cc(N3CCOCC3)c(F)cc12
emission maximum (in CCO): 481 nm

SMILES: CCNc1ccc2c(C(F)(F)F)cc(=O)oc2c1
emission maximum (in C1CCC2CCCCC2C1): 420 nm
emission maximum (in C1CCCCC1): 417 nm
emission maximum (in CC1CCCCC1): 417 nm
emission maximum (in CC#N): 485 nm
emission maximum (in CC(C)=O): 485 nm
emission maximum (in CC(C)O): 490 nm
emission maximum (in CCC(C)CC): 415 nm
emission maximum (in CCCC(C)C): 415 nm
emission maximum (in CCCCCC): 417 nm
emission maximum (in CCCCCCO): 490 nm
emission maximum (in CCCCO): 493 nm
emission maximum (in CCO): 500 nm
emission maximum (in CCOC(C)=O): 478 nm
emission maximum (in CO): 500 nm

SMILES: CCOC(=O)c1c(-c2cc3ccccc3oc2=O)nn(-c2ccccc2)c1C(=O)OCC
emission maximum (in ClCCl): 401 nm

SMILES: C/C=C/c1cc(OC)cc(OC)c1
emission maximum (in CC#N): 343 nm
emission maximum (in CCCCCC): 338 nm

SMILES: COc1ccc(-c2cc3c4c(c2)CCc2cc(-c5ccc(OC)cc5)cc(c2-4)CC3)cc1
emission maximum (in C1CCCCC1): 386.34 nm
emission maximum (in C1CCOC1): 390.22 nm
emission maximum (in CC#N): 388.06 nm
emission maximum (in CCCCCC): 384.62 nm
emission maximum (in CCO): 386.99 nm
emission maximum (in CN(C)C=O): 392.15 nm
emission maximum (in CO): 386.56 nm
emission maximum (in ClC(Cl)Cl): 391.46 nm
emission maximum (in ClCCl): 391.08 nm

SMILES: CCC1=C(C)C2=C(C)c3c(I)c(I)cn3[B-](F)(F)[N+]2=C1C
emission maximum (in C1CCCCC1): 538.5 nm
emission maximum (in CC(C)=O): 533 nm
emission maximum (in CCO): 534 nm
emission maximum (in CCOC(C)=O): 533 nm
emission maximum (in CO): 533.5 nm
emission maximum (in OCC(F)(F)F): 530.5 nm

Other lines, results leading:

emission maximum (in CC#N): 482 nm
emission maximum (in ClCCl): 474 nm
SMILES: COC(=O)c1cc(=O)n(C)c2cc(-c3ccc4c(c3)OCO4)sc12

emission maximum (in CO): 778 nm
emission maximum (in O): 770 nm
SMILES: CC1(C)C2=[N+](CCCCCC(=O)NCCNC(=O)CCCCCN3/C(=C/C=C/C=C/C=C/2)C(C)(C)c2cc(S(=O)(=O)[O-])ccc23)c2ccc(S(=O)(=O)[O-])cc21

emission maximum (in CO): 617 nm
SMILES: C(C1=[NH+]c2cccc3cccc1c23)=c1[nH]c2cccc3cccc1c32

emission maximum (in CC#N): 585 nm
emission maximum (in CCCCCC): 588 nm
emission maximum (in CCOC(C)=O): 589 nm
emission maximum (in CO): 583 nm
emission maximum (in ClCCl): 594 nm
SMILES: CCCSc1ccc2n1[B-](F)(F)[N+]1=CC=CC1=C2c1ccccc1

emission maximum (in C1CCCCC1): 370 nm
emission maximum (in C1CCOC1): 386 nm
emission maximum (in CC#N): 400 nm
emission maximum (in CCO): 411 nm
emission maximum (in CO): 419 nm
emission maximum (in ClC(Cl)Cl): 390 nm
SMILES: CCCCCCOc1ccc(-c2cnc(-c3nnc(-c4ccc(OCCCCCC)cc4)o3)o2)cc1

emission maximum (in CC#N): 409 nm
emission maximum (in CCCCCC): 337 nm
SMILES: Cc1ccc(-n2c(C)ccc2C)cc1

emission maximum (in CCO): 422 nm
SMILES: CCOC(=O)c1cc(C(=O)OCC)c2ccc(C)cc2n1

emission maximum (in CCOC(C)=O): 428 nm
SMILES: CCCCCCCCCCCCOc1ccc(C#CC(C#Cc2ccc(OCCCCCCCCCCCC)cc2)=Cc2cc(C=C(C#Cc3ccc(OCCCCCCCCCCCC)cc3)C#Cc3ccc(OCCCCCCCCCCCC)cc3)cc(C=C(C#Cc3ccc(OCCCCCCCCCCCC)cc3)C#Cc3ccc(OCCCCCCCCCCCC)cc3)c2)cc1

emission maximum (in O): 603 nm
SMILES: CC[n+]1c(-c2ccccc2)c2cc(-n3cccc3)ccc2c2ccc(N)cc21

emission maximum (in ClC(Cl)Cl): 553 nm
SMILES: Oc1cccc(C2=[N+]3C(=C(c4ccccc4)c4cccn4[B-]3(F)F)C=C2)c1

emission maximum (in CC#N): 504 nm
emission maximum (in ClCCl): 635 nm
SMILES: Cn1c(=O)cc(C(=O)c2ccccc2)c2sc(-c3ccc(N(c4ccccc4)c4ccccc4)cc3)cc21

emission maximum (in C1CCOC1): 468 nm
SMILES: Cc1cc(C)c([B-]2(c3c(C)cc(C)cc3C)[O+]=P(c3ccccc3)(c3ccccc3)c3cc(-c4ccc(C(F)(F)F)cc4)sc3-c3sc(-c4ccc(C(F)(F)F)cc4)cc32)c(C)c1

emission maximum (in ClCCl): 540 nm
SMILES: C(=C\c1cc(/C=C/c2ccc(N(c3ccccc3)c3ccccc3)cc2)ncn1)/c1ccc(N(c2ccccc2)c2ccccc2)cc1

emission maximum (in ClCCl): 517 nm
SMILES: CCCCCCN1C(=O)c2cccc3c(-c4ccc(-c5cc(-c6ccc(Cl)cc6)n(-c6ccccc6)n5)s4)ccc(c23)C1=O

emission maximum (in c1ccccc1): 608 nm
SMILES: CN(C)c1ccc2ccc3oc(=O)c(-c4ccccc4)nc3c2c1

emission maximum (in ClC(Cl)Cl): 643 nm
SMILES: F[B-]1(F)n2c(ccc2-c2cccs2)C(c2ccc(Br)cc2)=C2C=CC(c3cccs3)=[N+]21

emission maximum (in ClC(Cl)Cl): 648 nm
SMILES: CCCN1c2ccccc2Sc2cc(/C=C\c3cc(=O)oc4cc(C)c(Cl)cc34)ccc21

emission maximum (in C1CCOC1): 498 nm
SMILES: C(=C\c1ccccc1/C=C/c1c2ccccc2cc2ccccc12)/c1ccncc1

emission maximum (in C1CCOC1): 468 nm
SMILES: COc1cc2c(cc1-c1ccc(F)cc1)Cc1c3c(c4c(c1-2)-c1cc(OC)c(-c2ccc(F)cc2)cc1C4)C(=O)N(CCC(C)C)C3=O

emission maximum (in ClC(Cl)Cl): 618 nm
SMILES: CCCN1c2ccccc2Sc2cc(/C=C\c3cc(=O)oc4ccccc34)ccc21

emission maximum (in CC#N): 510 nm
SMILES: N#Cc1ccc(C=C2Oc3cccc(O)c3C2=O)cc1

emission maximum (in CCO): 465 nm
SMILES: O=c1c2cc(F)c(O)cc2sc2cc(O)c(F)cc12

emission maximum (in ClCCl): 541 nm
SMILES: F[B-]1(F)n2c(Cl)c(Cl)c(Br)c2C(Oc2ccccc2)=C2C(Br)=C(Cl)C(Cl)=[N+]21

emission maximum (in C1CCCCC1): 360 nm
SMILES: CCC(C)(C)c1ccc(-c2ccc3c(c2)C(CCOC)(CCOC)c2cc(C(C)(C)CC)ccc2-3)cc1

emission maximum (in CCO): 403 nm
SMILES: C#Cc1ccc2ccc3oc(=O)cc(C)c3c2c1
